The assay deals with T1, E. coli GCH I (FolE, B2153) (Escherichia coli, UniProt P0A6T5).
T1 sequence (P0A6T5 2-222): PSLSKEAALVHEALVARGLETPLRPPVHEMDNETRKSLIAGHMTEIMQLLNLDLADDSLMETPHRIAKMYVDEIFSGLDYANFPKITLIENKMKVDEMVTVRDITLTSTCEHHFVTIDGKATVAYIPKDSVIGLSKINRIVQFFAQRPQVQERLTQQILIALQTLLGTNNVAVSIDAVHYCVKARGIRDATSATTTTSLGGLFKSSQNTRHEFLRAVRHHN
Put plainly: LC-MS of product. As to conditions: 20 mM Tris-SO4 pH 8.0, 2 mM dithiothreitol, 0.1 M KCl, 100 uM GTP, 120 min, ambient temperature. It counts as biochemical.

The structures appear in SMILES notation.

`Nc1nc2c(ncn2[C@@H]2O[C@H](COP(=O)(O)OP(=O)(O)OP(=O)(O)O)[C@@H](O)[C@H]2O)c(=O)[nH]1` [GTP]: the LC-MS of product entry is given as “product produced by ToyD with that produced with E. coli GCH I (FolE, B2153)”.

Source of the values: publication PMC2603307 (Chemistry & biology, 2008).
